As a reminder, the IC50 is the concentration at which inhibition is half-maximal. The low end stands for higher potency, the high end for lower potency. A word on the melting point: it is the temperature, or range, at which the solid turns liquid.

Counter-ions that a name gives are not always drawn.

The results in this text go back to patent publication US8507690B2, “Thiazole derivative and use thereof as VAP-1 inhibitor” (R-Tech Ueno, Ltd., priority 2008, dated 2013).

The target of one data set is T1, rat VAP-1 enzyme (SSAO) (Rattus norvegicus, UniProt O08590).
T1 construct: made in house; cell extract used
T1 sequence (O08590 1-763): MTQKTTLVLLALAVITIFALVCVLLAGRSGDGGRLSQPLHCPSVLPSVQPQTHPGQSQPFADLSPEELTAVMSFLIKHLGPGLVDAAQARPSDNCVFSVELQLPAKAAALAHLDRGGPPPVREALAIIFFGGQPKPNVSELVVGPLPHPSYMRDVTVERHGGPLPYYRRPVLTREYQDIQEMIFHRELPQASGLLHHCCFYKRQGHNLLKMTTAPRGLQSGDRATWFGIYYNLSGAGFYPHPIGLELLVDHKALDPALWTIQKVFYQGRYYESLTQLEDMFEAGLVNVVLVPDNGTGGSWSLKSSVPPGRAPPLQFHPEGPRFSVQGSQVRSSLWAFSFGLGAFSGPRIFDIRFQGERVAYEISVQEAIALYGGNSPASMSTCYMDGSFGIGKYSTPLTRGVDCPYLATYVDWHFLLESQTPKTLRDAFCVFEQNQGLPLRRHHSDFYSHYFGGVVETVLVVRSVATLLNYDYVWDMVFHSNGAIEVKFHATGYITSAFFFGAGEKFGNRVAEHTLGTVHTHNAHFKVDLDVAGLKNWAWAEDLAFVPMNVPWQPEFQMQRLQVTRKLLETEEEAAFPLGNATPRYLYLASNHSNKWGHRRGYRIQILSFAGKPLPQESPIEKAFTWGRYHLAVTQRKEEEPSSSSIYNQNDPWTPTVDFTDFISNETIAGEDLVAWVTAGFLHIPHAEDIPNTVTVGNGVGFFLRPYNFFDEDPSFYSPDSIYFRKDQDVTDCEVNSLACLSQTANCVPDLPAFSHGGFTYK
Kind of data set: Enzyme activity inhibitory effect on rat VAP-1 enzyme (SSAO), radiochemical-enzyme assay with 14C-benzylamine. It counts as biochemical. The conditions noted are these: rat VAP-1 (SSAO) cell extract, 14C-benzylamine 1×10^−5 mol/l, 37° C. 2 hours. The protocol: (§1) The compounds of the present invention obtained in Production Examples were examined for the enzyme activity inhibitory effect on human and rat VAP-1 enzyme (SSAO) by the following method.
(§2) The VAP-1 enzyme (SSAO) activity in both human and rat was measured by a radiochemical-enzyme assay using ^14C-benzylamine as an artificial substrate. Human or rat VAP-1 was cloned from the cDNA library and expressed in a cell. The cell extract was preincubated with a test compound solution (final concentration 1×10^−7-1×10^−11 mol/l) at room temperature for 20 minutes. Then, ^14C-benzylamine (final concentration 1×10^−5 mol/l) was added, and the mixture was incubated at a final volume of 200 μl at 37° C. for 2 hours. The enzyme reaction was stopped by addition of 2 mol/l (200 μl) citric acid. The oxidation product was extracted with 1 ml toluene/ethyl acetate (1:1), and the radioactivity thereof was measured by a liquid scintillation counter.

Data set [1] concerns the target T2, human VAP-1 enzyme (SSAO) (Homo sapiens, UniProt Q16853).
T2 construct: made in house; cell extract used
T2 sequence (Q16853 1-763): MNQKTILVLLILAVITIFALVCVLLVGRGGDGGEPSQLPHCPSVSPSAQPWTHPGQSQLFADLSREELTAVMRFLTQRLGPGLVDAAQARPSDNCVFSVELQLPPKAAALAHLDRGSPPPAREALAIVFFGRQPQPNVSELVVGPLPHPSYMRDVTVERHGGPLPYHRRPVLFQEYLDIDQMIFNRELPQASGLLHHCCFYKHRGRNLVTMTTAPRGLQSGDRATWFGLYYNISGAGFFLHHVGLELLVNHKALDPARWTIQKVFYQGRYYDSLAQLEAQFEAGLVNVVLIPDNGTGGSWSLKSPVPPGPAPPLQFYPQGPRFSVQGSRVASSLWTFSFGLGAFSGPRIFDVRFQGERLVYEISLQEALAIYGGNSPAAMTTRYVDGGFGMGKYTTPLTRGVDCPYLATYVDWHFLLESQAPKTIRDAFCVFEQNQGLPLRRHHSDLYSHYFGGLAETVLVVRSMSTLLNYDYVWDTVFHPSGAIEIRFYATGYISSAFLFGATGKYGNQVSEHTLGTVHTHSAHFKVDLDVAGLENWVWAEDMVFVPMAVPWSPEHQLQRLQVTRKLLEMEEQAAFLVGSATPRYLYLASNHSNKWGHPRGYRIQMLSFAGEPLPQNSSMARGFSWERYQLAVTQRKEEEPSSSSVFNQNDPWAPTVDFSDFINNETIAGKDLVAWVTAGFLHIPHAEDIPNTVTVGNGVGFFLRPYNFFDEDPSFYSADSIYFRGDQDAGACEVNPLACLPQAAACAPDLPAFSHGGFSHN
As to the kind of experiment: Enzyme activity inhibitory effect on human VAP-1 enzyme (SSAO), radiochemical-enzyme assay with 14C-benzylamine. The format is biochemical. Conditions: human VAP-1 (SSAO) cell extract, 14C-benzylamine 1×10^−5 mol/l, 37° C. 2 hours. As to the method: as §1, §2

For the compound `CC(=O)Nc1nc(CCc2cc(CCCOC(=O)NN)cs2)cs1.Cl` [Production Example 16, 3-(5-{2-[2-(acetylamino)-1,3-thiazol-4-yl]ethyl}thiophen-3-yl)propyl hydrazinecarboxylate hydrochloride], the melting point was 98 to 102 °C. The compound further gave an IC50 on rat VAP-1 enzyme (SSAO) of 10.5 nM. The compound also came in with a concentration for half-maximal inhibition (IC50) in data set [1] of 16.7 nM.

For `CC(=O)Nc1nc(CCc2ccc(CSC(=O)NN)cc2)cs1.Cl` [Production Example 34, S-(4-{2-[2-(acetylamino)-1,3-thiazol-4-yl]ethyl}benzyl) hydrazinecarbothioate hydrochloride], the melting point was 149 to 158 °C. The IC50 at rat VAP-1 enzyme (SSAO) was 4.6 nM. In data set [1], this compound displayed a 50% inhibitory concentration (IC50) of 23.2 nM.

Take `CC(=O)Nc1nc(CCc2csc(CCCOC(=O)NN)c2)cs1.Cl` [Production Example 15, 3-(4-{2-[2-(acetylamino)-1,3-thiazol-4-yl]ethyl}thiophen-2-yl)propyl hydrazinecarboxylate hydrochloride]: the melting point fell in the range of 150 to 153 °C. On rat VAP-1 enzyme (SSAO), this compound had an IC50 of 0.6 nM. Besides, half-maximal inhibition in data set [1] (IC50) required 13.4 nM.

Take `CC(=O)Nc1nc(CCc2ccc(CNC(=O)NN)s2)cs1.Cl` [Production Example 29, N-[2-(5-{2-[2-(acetylamino)-1,3-thiazol-4-yl]ethyl}thiophen-2-yl)methyl]hydrazinecarboxamide hydrochloride]: the melting point lay within 158 to 161 °C. Moreover, half-maximal inhibition against rat VAP-1 enzyme (SSAO) (IC50) required 0.6 nM. Besides, the IC50 in data set [1] was 1.8 nM.

In turn, `CC(=O)Nc1nc(CCc2cccc(OC(=O)NN)c2)cs1` (as salt: hydrochloride) returned a melting point of 158 to 162 °C.

In turn, `CC(=O)Nc1nc(CCc2cc(C)c(CCCOC(=O)NN)s2)cs1.Cl` [Production Example 17, 3-(5-{2-[2-(acetylamino)-1,3-thiazol-4-yl]ethyl}-3-methylthiophen-2-yl)propyl hydrazinecarboxylate hydrochloride] had a melting point of 111 to 115 °C. The same compound gave an IC50 against rat VAP-1 enzyme (SSAO) of 5 nM. The compound also showed a concentration for half-maximal inhibition (IC50) in data set [1] of 68.7 nM.

With `CC(=O)Nc1nc(C(=O)Oc2ccc(CCOC(=O)NN)cc2)cs1.Cl` [Production Example 8, 4-{2-[(hydrazinocarbonyl)oxy]ethyl}phenyl 2-(acetylamino)-1,3-thiazole-4-carboxylate hydrochloride], the melting point fell in the range of 179 to 184 °C. Further, half-maximal inhibition at rat VAP-1 enzyme (SSAO) (IC50) was put at 1.7 nM. The IC50 in data set [1] is 6.4 nM.

`CC(=O)Nc1nc(CCc2cc(CCCNC(=O)NN)cs2)cs1` (as salt: hydrochloride) [Production Example 32, N-[3-(5-{2-[2-(acetylamino)-1,3-thiazol-4-yl]ethyl}thiophen-3-yl)propyl]hydrazinecarboxamide hydrochloride]: the melting point lay in the range of 111 to 115 °C.

For `CC(=O)Nc1nc(CCc2csc(CCCNC(=O)NN)c2)cs1` (as salt: hydrochloride), the melting point is 153 to 156 °C.

On to `CC(=O)Nc1nc(CCc2cccc(CCOC(=O)NN)c2)cs1.Cl` [Production Example 12, 2-(3-{2-[2-(acetylamino)-1,3-thiazol-4-yl]ethyl}phenyl)ethyl hydrazinecarboxylate hydrochloride], for which the melting point is 138 to 140 °C. The concentration for half-maximal inhibition (IC50) at rat VAP-1 enzyme (SSAO) was determined as 0.5 nM. This compound gave an IC50 in data set [1] of 3.2 nM.

For `CC(=O)Nc1nc(COc2ccc(CCNC(=O)NN)cc2)cs1` [Production Example 25, N-[2-(4-{[2-(acetylamino)-1,3-thiazol-4-yl]methoxy}phenyl)ethyl]hydrazinecarboxamide trifluoroacetate], the concentration for half-maximal inhibition (IC50) was determined as 1.5 nM against rat VAP-1 enzyme (SSAO) and 48.5 nM in data set [1].

`CC(=O)Nc1nc(CCc2ccc(CCOC(=O)NN)s2)cs1` [Production Example 14, 2-(5-{2-[2-(acetylamino)-1,3-thiazol-4-yl]ethyl}thiophen-2-yl)ethyl hydrazinecarboxylate hydrochloride]: the IC50 against rat VAP-1 enzyme (SSAO) was 5.3 nM; in data set [1], 5.1 nM.

In turn, `CC(=O)Nc1nc(C(=O)Nc2ccc(CNC(=O)NN)cc2)cs1.Cl` [Production Example 24] registered a melting point of 231 to 234 °C.

`CC(=O)Nc1nc(CNc2ccc(CNC(=O)NN)cc2)cs1` [Production Example 23, N-[4-({[2-(acetylamino)-1,3-thiazol-4-yl]methyl}amino)benzyl]hydrazinecarboxamide dihydrochloride]: the half-inhibitory concentration (IC50) against rat VAP-1 enzyme (SSAO) is 8.4 nM; in data set [1], 16.8 nM.

`CC(=O)Nc1nc(CCc2ccc(CSC(=O)NN)s2)cs1` (as salt: hydrochloride) [Production Example 36, S-[(5-{2-[2-(acetylamino)-1,3-thiazol-4-yl]ethyl}thiophen-2-yl)methyl]hydrazinecarbothioate hydrochloride] yielded a melting point of 147 to 153 °C.

With `CC(=O)Nc1nc(CCc2ccc(CCOC(=O)NN)cc2)cs1.Cl` [Production Example 3, 2-(4-{2-[2-(acetylamino)-1,3-thiazol-4-yl]ethyl}phenyl)ethyl hydrazinecarboxylate hydrochloride], the melting point is 172 to 174 °C. In addition, the midpoint of inhibition against rat VAP-1 enzyme (SSAO), the IC50, lay at 2.3 nM. In addition, the concentration for half-maximal inhibition (IC50) in data set [1] turned out to be 11.7 nM.

On to `CC(=O)Nc1nc(CCc2ccc(CSC(=O)NN)s2)cs1` [Production Example 36, S-[(5-{2-[2-(acetylamino)-1,3-thiazol-4-yl]ethyl}thiophen-2-yl)methyl]hydrazinecarbothioate hydrochloride], for which the IC50 against rat VAP-1 enzyme (SSAO) was 0.6 nM; in data set [1], 2.3 nM.

Regarding `CC(=O)Nc1nc(CCc2ccc(CNC(=O)NN)c(F)c2F)cs1` [Production Example 22, N-(4-{2-[2-(acetylamino)-1,3-thiazol-4-yl]ethyl}-2,3-difluorobenzyl)hydrazinecarboxamide hydrochloride], the results for the IC50 (at rat VAP-1 enzyme (SSAO); in data set [1]) were 2.2 nM and 5.5 nM, respectively.

In the case of `CC(=O)Nc1nc(CCc2ccc(COC(=O)NN)s2)cs1` [Production Example 13, {5-[2-(2-acetylamino-1,3-thiazol-4-yl)ethyl]thiophen-2-yl}methyl hydrazinecarboxylate hydrochloride], the figures for the IC50 (against rat VAP-1 enzyme (SSAO); in data set [1]) were 0.7 nM and 3.4 nM, respectively.

In the case of `CC(=O)Nc1nc(CCc2ccc(COC(=O)NN)c(F)c2F)cs1` [Production Example 6, 4-{2-[2-(acetylamino)-1,3-thiazol-4-yl]ethyl}-2,3-difluorobenzyl hydrazinecarboxylate hydrochloride], the values for the IC50 (against rat VAP-1 enzyme (SSAO); in data set [1]) were 0.6 nM and 1.3 nM, respectively.

Turning to `CC(=O)Nc1nc(CCc2ccc(CNC(=O)NN)cc2F)cs1` (as salt: hydrochloride), the melting point lay in the range of 165 to 169 °C.

As for `CC(=O)Nc1nc(C(=O)Nc2ccc(CNC(=O)NN)cc2)cs1.Cl` [Production Example 24, 2-(acetylamino)-N-(4-{[hydrazinocarbonyl)amino]methyl}phenyl)-1,3-thiazole-4-carboxamide hydrochloride], the results for the half-maximal inhibitory concentration (IC50) (against rat VAP-1 enzyme (SSAO); in data set [1]) were 1 nM and 7.3 nM, respectively.
